The results in this text go back to article PMC11193793 (Scientific Reports, 2024).

The target in one test is T1, ovine COX-1 (Ovis aries, UniProt P05979).
T1 sequence (P05979 25-600): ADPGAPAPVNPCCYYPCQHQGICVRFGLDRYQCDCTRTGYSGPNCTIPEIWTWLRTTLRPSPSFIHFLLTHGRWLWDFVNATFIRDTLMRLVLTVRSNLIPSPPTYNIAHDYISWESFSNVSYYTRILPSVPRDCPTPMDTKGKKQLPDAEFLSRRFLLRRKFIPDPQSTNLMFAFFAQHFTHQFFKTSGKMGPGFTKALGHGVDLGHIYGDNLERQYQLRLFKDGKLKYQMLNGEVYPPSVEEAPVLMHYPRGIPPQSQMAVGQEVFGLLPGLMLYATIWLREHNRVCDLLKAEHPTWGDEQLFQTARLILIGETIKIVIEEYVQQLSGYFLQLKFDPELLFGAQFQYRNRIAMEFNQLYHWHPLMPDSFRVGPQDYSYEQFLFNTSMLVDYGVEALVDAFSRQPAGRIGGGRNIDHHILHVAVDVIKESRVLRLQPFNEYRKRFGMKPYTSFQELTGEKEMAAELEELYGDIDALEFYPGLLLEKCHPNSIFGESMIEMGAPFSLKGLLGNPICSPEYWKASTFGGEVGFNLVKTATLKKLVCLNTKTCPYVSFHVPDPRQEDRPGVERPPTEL
Put plainly: biochemical. The protocol: (§1) The full method is provided in the Supplementary materials.
(§2) Serial dilutions (100, 10, 1, 0.1, and 0.01 µg/mL) of the F. solani extract and the isolated metabolites were prepared and solvated in DMSO, then estimated for their abilities to inhibit the synthesis of prostaglandin using the kits for screening test for COX inhibitors (BioVision, Inc., USA, Mountain View, Catalog # K548-100 and Catalog # K547-100, for COX- […]
(§3) The investigational methodology was carried out following the provider’s recommendations. Arachidonic acid is being converted into prostaglandin (PGH2) by the cyclooxygenase enzyme (COX). During the reduction, the PGF2α formed in PGH2 via stannous chloride was evaluated via ELISA (enzyme-linked immunoassay). This bioassay is based on the competition among an antibody; PGspecific and a cholinesterase conjugate; PG-acetyl. The developed (antibody-PG) was combined with an acetylcholinesterase substrate included in Ellman's reagent. Each sample (20 µL) was used, (10 µL) heme, and (10 µL) enzyme, were combined to the reaction buffer solution (160 µL) formed of (2 mM phenol and 5 mM ethylenediamine tetra acetate (EDTA) in 0.1 M Tris-HCl, pH 8), followed by incubation of the mixture in a water bath at 37 °C for 10 min. Subsequently, starting the COX reaction was done by adding 10 µL of arachidonic acid, with a final concentration of […], to the reaction mixture.
(§4) Later, the COX reactions were ended after 2 min by adding saturated stannous chloride (30 µL), then inoculate for 5 min at room temperature. Afterwards, the PGF2α level was measured using ELISA. Subsequent move to a 96-well plate, inoculate the samples at room temperature for 18 h, then wash the plate to eliminate any residual reagents, followed by the addition of Ellman’s reagent (200 µL) which contains an acetylcholinesterase substrate, and incubation at room temperature for 60 to 90 min. A spectrophotometer with a microplate reader at 410 nm was used to measure the produced color at 410 […]
(§5) The data mean values from three measurements were used to calculate IC50 values. […]

For another test, the target named is T2, recombinant human COX-2 (Homo sapiens, UniProt P35354).
T2 sequence (P35354 18-604): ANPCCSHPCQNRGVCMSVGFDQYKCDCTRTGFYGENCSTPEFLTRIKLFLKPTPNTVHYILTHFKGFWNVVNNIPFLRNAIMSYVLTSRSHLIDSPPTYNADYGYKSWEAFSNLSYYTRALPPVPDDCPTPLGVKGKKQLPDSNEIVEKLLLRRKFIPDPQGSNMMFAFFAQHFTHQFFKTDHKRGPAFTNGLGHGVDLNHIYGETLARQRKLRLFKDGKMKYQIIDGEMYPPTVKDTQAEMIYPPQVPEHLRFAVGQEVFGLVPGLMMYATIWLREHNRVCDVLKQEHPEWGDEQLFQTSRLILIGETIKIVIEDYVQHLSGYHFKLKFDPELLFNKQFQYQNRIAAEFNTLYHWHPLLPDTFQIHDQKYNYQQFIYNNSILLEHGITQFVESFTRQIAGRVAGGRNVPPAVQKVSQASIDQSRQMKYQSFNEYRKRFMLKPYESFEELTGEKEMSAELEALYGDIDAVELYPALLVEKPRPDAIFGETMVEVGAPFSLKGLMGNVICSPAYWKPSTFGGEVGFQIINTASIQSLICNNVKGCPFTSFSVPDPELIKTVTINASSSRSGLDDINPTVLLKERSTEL
Put plainly: biochemical. The conditions noted are these: for Selectivity index (SI): COX-2 selectivity from COX-1 and COX-2 IC50. How it is done: as §1, §2, §3, §4, §5

The target in a further test is tyrosinase enzyme. As to the kind of experiment: Tyrosinase inhibitory assay (L-DOPA substrate, BioVision kit). The class given is biochemical. As to conditions: mean ± SEM, triplicate. The text has this:
The anti-tyrosinase capacities of the F. solani extract together with the six isolated metabolites were investigated via evaluating their inhibitory activities against tyrosinase enzyme. The full method is provided in the Supplementary materials. […]
Tyrosinase inhibitory assay
The anti-tyrosinase capacities of the F. solani extract together with the six isolated metabolites were investigated via evaluating their inhibitory activities against tyrosinase enzyme using the kits for screening test of tyrosinase enzyme inhibition (BioVision, Inc., USA, Mountain View, Catalog # K575-100).
First, all samples were dissolved using DMSO (reference drug, EtOAc extract and the isolated compounds) preparing different concentrations. The assay of tyrosinase inhibition was done as previously reported 3. The mixture of assay composed of test solution (1900 μL) in (0.1 M) buffer phosphate pH 6.8 and freshly prepared enzyme solution (100 μL) which is composed of 15 U/mL in (0.1 M) buffer phosphate pH 6.8. The 30 min. of room temperature after pre-incubation, the reaction was started by adding substrate solution (1000 μL) which composed of L-DOPA (1.5 Mm) in buffer phosphate (0.1 M) pH 6.8. After 7 minutes of room temperature incubation, the mixture of the assay was analyzed for absorbance at […]
510 nm. […] The activity of tyrosinase inhibition
(The activity of the enzyme together with the tested samples). The mean values of the data from three measurements were used to calculate IC50 values.

Where [1] appears, read: mean ± SEM, triplicate, read-out: IC50 COX-2.
[2] abbreviates: mean ± SEM, triplicate, read-out: IC50 COX-1.

The structures appear in SMILES notation. Read-outs that look alike come from different tables or passages of the source.

With `CCCCc1ccc(C(=O)O)nc1` [Fusaric acid (6), fusaric acid], the half-maximal inhibitory concentration (IC50) on ovine COX-1 was 3.86 ± 0.05 µM; at recombinant human COX-2 (setting [1]), 4.81 ± 0.14 µM; at tyrosinase enzyme, 13.4 ± 0.27 µM. In addition, on recombinant human COX-2, the “Selectivity index (SI)” value came out at 0.8.

With `O=C(O)CCCCCCCC(=O)O` [Azelaic acid (4), azelaic acid], the IC50 on ovine COX-1 (setting [2]) worked out at 11.6 ± 0.29 µM; on recombinant human COX-2 (setting [1]), 2.21 ± 0.06 µM; against tyrosinase enzyme it was 8.75 ± 0.18 µM. For the same compound, the “Selectivity index (SI)” value at recombinant human COX-2 worked out at 5.24.

As for `OCCc1ccc(O)cc1` [Tyrosol (3), tyrosol], the results for the IC50 on ovine COX-1, on recombinant human COX-2 and against tyrosinase enzyme were 23.9 ± 0.38 µM, 5.31 ± 0.15 µM and 11.3 ± 0.24 µM, respectively. Moreover, the “Selectivity index (SI)” value on recombinant human COX-2 is given as 4.49.

Turning to `O=Cc1ccc(O)cc1` [4-Hydroxybenzaldehyde (1), 4-hydroxybenzaldehyde], the IC50 is 25.7 ± 0.55 µM on ovine COX-1 (setting [2]), 8.87 ± 0.26 µM on recombinant human COX-2 (setting [1]), > 50 µM at tyrosinase enzyme (listed as 4-hydroxybenzaldehyde) and 70.6 ± 1.49 µM against tyrosinase enzyme (listed as 4-hydroxybenzaldehyde (1)). Moreover, the “Selectivity index (SI)” value on recombinant human COX-2 is on record as 2.9.

For the compound `O=C(O)CC(O)C(=O)O` (stereo not drawn) [Malic acid (5), malic acid], the half-inhibitory concentration (IC50) against ovine COX-1 was 51 ± 0.86 µM; at recombinant human COX-2 (setting [1]), 10.4 ± 0.3 µM; against tyrosinase enzyme, 87.5 ± 1.84 µM; against tyrosinase enzyme (listed as malic acid), > 50 µM.

On to `O=C(O)c1ccc(O)cc1` [4-Hydroxybenzoic acid (2), 4-hydroxybenzoic acid], for which the IC50 at ovine COX-1 (setting [2]) worked out at 44.5 ± 0.92 µM; on recombinant human COX-2 (setting [1]) it was 28.4 ± 0.76 µM; against tyrosinase enzyme, 25.4 ± 0.53 µM.
